pIC50: −log10 of the molar value. Active and inactive are the calls of the source. The calls are words filed in the database; no cut-off is given here.
What was measured:
[1] = Antiproliferative activity against H661 cells; type: functional, cell-based; settings: Homo sapiens, NCI-H661
[2] = molecular target: Histone H4 (Homo sapiens) (UniProt P62805); assay: Acetylation of histone H4 at 2.5 uM by Western blot analysis
[3] = molecular target: Histone H4 (Homo sapiens) (UniProt P62805); assay: Acetylation of histone H4 at 5 uM by Western blot analysis
[4] = test system: HCT-116; assay: Antiproliferative activity against HCT116 cells; type: functional, cell-based; settings: Homo sapiens
[5] = Antiproliferative activity against H1299 cells; type: functional, cell-based; settings: Homo sapiens, NCI-H1299
[6] = molecular target: Histone H4 (Homo sapiens) (UniProt P62805); assay: Acetylation of histone H4 at 0.3 uM by Western blot analysis

SMILES | pIC50 [1] | further results
CC(/C=C/C(=O)NO)=C\C1(C)Cc2ccccc2C1=O (centres undefined) | 5.78 | 
CC(/C=C/C(=O)NO)=C\C1(C)Cc2cc(F)ccc2C1=O (centres undefined) | 5.82 | Activity [2]: Active
CC(/C=C/C(=O)NO)=C\C1(C)CCc2ccccc2C1=O (centres undefined) | 5.52 | Activity [3]: Active
CC(/C=C/C(=O)Nc1ccccc1N)=C\C1(C)CCc2ccccc2C1=O (centres undefined) | 5.30 | 
CC(/C=C/C(=O)NO)=C\[C@@H](C)C(=O)c1ccc(N(C)C)cc1 [TRICHOSTATIN] | > 6.52 | pIC50 [4]: 8.89; pIC50 [5]: 7.00
CC(/C=C/C(=O)Nc1ccccc1N)=C\C1(C)Cc2ccccc2C1=O (centres undefined) | 5.52 | 
CC(/C=C/C(=O)Nc1ccccc1N)=C\C1(C)Cc2cc(N(C)C)ccc2C1=O (centres undefined) | 5.60 | 
CC(/C=C/C(=O)Nc1ccccc1N)=C\C1(C)Cc2cc(F)ccc2C1=O (centres undefined) | 5.15 | 
CC(/C=C/C(=O)NO)=C\C1(C)Cc2cc(N(C)C)ccc2C1=O (centres undefined) |  | Activity [6]: Active
C=C(/C=C/C(=O)Nc1ccccc1N)CC1(C)Cc2ccccc2C1=O (centres undefined) | < 5.00 | 
